Assay results as given in ChEMBL document CHEMBL1201862, “PubChem BioAssay data set” (2004).
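Each compound was tested at five concentrations against cells in 96-well plates for 48 hours. At the GI50, growth is halved.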 The source made the active and inactive calls. Cut-off read from the data, not from the text of the source: active = GI50 up to about 1.1 µM and inactive = higher.

Key:
Assay in all cases: NCI anticancer screen, dose series, 48 h
[1] = test system: MDA-MB-435
[2] = test system: UACC-62
[3] = test system: MDA-N
[4] = test system: OVCAR-5
[5] = test system: CCRF-CEM
[6] = test system: SK-MEL-2
[7] = test system: KM12
[8] = test system: PC-3
[9] = test system: LOX IMVI
[10] = test system: SK-MEL-28
[11] = test system: HL-60
[12] = test system: IGROV-1
[13] = test system: SF-295
[14] = test system: SW-620
[15] = test system: HOP-92
[16] = test system: UO-31
[17] = test system: NCI-H522
[18] = test system: Malme-3M
[19] = test system: MDA-MB-231
[20] = test system: BT-549
[21] = test system: SK-MEL-5
[22] = test system: HCC 2998
[23] = test system: DU-145
[24] = test system: OVCAR-8
[25] = test system: SNB-19
[26] = test system: HCT-15
[27] = test system: HOP-62
[28] = test system: NCI-H460
[29] = test system: COLO 205
[30] = test system: SF-268
[31] = test system: MCF7
[32] = test system: SN12C
[33] = test system: SNB-75
[34] = test system: EKVX
[35] = test system: T47D
[36] = test system: U-251
[37] = test system: RXF 393
[38] = test system: HT-29
[39] = test system: A549
[40] = test system: TK-10
[41] = test system: HCT-116
[42] = test system: UACC-257
[43] = test system: SR
[44] = test system: RPMI-8226
[45] = test system: 786-0
[46] = test system: ACHN
[47] = test system: NCI/ADR-RES
[48] = test system: OVCAR-4
[49] = test system: NCI-H23
[50] = test system: K562
[51] = test system: SK-OV-3
[52] = test system: NCI-H226
[53] = test system: Hs-578T
[54] = test system: SF-539
[55] = test system: OVCAR-3
[56] = test system: CAKI-1
[57] = test system: MOLT-4
[58] = test system: M14

SMILES: CCCCCCCCCCCCCCCCNc1ccc2c(c1)OCCOCCOCCOCCO2
- GI50 [1]: 3170 nM (inactive)
- GI50 [2]: 2970 nM (inactive)
- GI50 [3]: 3140 nM (inactive)
- GI50 [4]: 3610 nM (inactive)
- GI50 [5]: 2190 nM (inactive)
- GI50 [6]: 2250 nM (inactive)
- GI50 [7]: 2060 nM (inactive)
- GI50 [8]: 2200 nM (inactive)
- GI50 [9]: 2240 nM (inactive)
- GI50 [10]: 6280 nM (inactive)
- GI50 [11]: 2070 nM (inactive)
- GI50 [12]: 2910 nM (inactive)
- GI50 [13]: 2330 nM (inactive)
- GI50 [14]: 3370 nM (inactive)
- GI50 [15]: 2370 nM (inactive)
- GI50 [16]: 2770 nM (inactive)
- GI50 [17]: 2330 nM (inactive)
- GI50 [18]: 3560 nM (inactive)
- GI50 [19]: 2910 nM (inactive)
- GI50 [20]: 3440 nM (inactive)
- GI50 [21]: 2250 nM (inactive)
- GI50 [22]: 4030 nM (inactive)
- GI50 [23]: 4240 nM (inactive)
- GI50 [24]: 2680 nM (inactive)
- GI50 [25]: 3370 nM (inactive)
- GI50 [26]: 2880 nM
- GI50 [27]: 2510 nM (inactive)
- GI50 [28]: 3100 nM (inactive)
- GI50 [29]: 1750 nM (inactive)
- GI50 [30]: 3760 nM (inactive)
- GI50 [31]: 3610 nM (inactive)
- GI50 [32]: 2920 nM (inactive)
- GI50 [33]: 3920 nM (inactive)
- GI50 [34]: 4030 nM (inactive)
- GI50 [35]: 3110 nM (inactive)
- GI50 [36]: 2490 nM (inactive)
- GI50 [37]: 2300 nM (inactive)
- GI50 [38]: 2750 nM (inactive)
- GI50 [39]: 3780 nM (inactive)
- GI50 [40]: 11700 nM (inactive)
- GI50 [41]: 3040 nM (inactive)
- GI50 [42]: 2560 nM (inactive)
- GI50 [43]: 3290 nM (inactive)
- GI50 [44]: 1670 nM (inactive)
- GI50 [45]: 3640 nM (inactive)
- GI50 [46]: 3050 nM (inactive)
- GI50 [47]: 2370 nM (inactive)
- GI50 [48]: 4020 nM (inactive)
- GI50 [49]: 3620 nM (inactive)
- GI50 [50]: 4200 nM (inactive)
- GI50 [51]: 3400 nM (inactive)
- GI50 [52]: 1770 nM (inactive)
- GI50 [53]: 2820 nM (inactive)
- GI50 [54]: 2320 nM (inactive)
- GI50 [55]: 2710 nM (inactive)
- GI50 [56]: 4000 nM (inactive)
- GI50 [57]: 2500 nM (inactive)
- GI50 [58]: 3790 nM (inactive)
